From patent US20230059136A1, “THE COMPOUNDS AND COMPOSITIONS FOR TREATING CONDITIONS ASSOCIATED WITH NLRP ACTIVITY” (Novartis AG, priority 2018, published 2023) come the findings set out here.

As usually defined, the IC50 is the concentration that inhibits the measured activity by half.

The first test has as its system IL-1β production in PMA-differentiated THP-1 cells. The experiment in a line: IL-1β production in PMA-differentiated THP-1 cells stimulated with gramicidin (hTHP-1 assay containing 2% fetal bovine serum). The class given is cell-based, human. The note with it: Homo sapiens, THP-1, Table B1; 2% fetal bovine serum; cells printed as numeric bound; read-out: hTHP-1 IC50 (Average IC50 of compounds in hTHP-1 assay). The procedure, abridged: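 THP-1 cells were differentiated with PMA 20 ng/ml for 16-18 h, then plated at 50,000 cells/well in RPMI with 2% FBS. They were preincubated 1 h with compound (100–0.0017 μM final, 0.37% DMSO), then stimulated with gramicidin 5 μM for 2 h. Supernatant IL-1β was measured by HTRF.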
In the case of `CC(C)c1cc(C#CC2CCOCC2)cc(C(C)C)c1CC(=O)N=S(N)(=O)c1cc(C(C)(C)O)n(-c2ccccc2)n1` (single isomer, unassigned) [Example 278, (S) or (R)-N-(amino(5-(2-hydroxypropan-2-yl)-1-phenyl-1H-pyrazol-3-yl)(oxo)-λ^6-sulfaneylidene)-2-(2,6-diisopropyl-4-((tetrahydro-2H-pyran-4-yl)ethynyl)phenyl)acetamide], the IC50 was more than 30000 nM.

For `CC(C)c1cc(C#CC2CCCCC2)cc(C(C)C)c1CC(=O)N=S(N)(=O)c1cc(C(C)(C)O)n(-c2ccccc2)n1` (single isomer, unassigned) [Example 280, (S) or (R)-N-(amino (5-(2-hydroxypropan-2-yl)-1-phenyl-1H-pyrazol-3-yl)(oxo)-λ^6-sulfaneylidene)-2-(4-(cyclohexylethynyl)-2,6-diisopropylphenyl) acetamide], the IC50 is more than 30000 nM.

Consider `CCc1cc2c(c(C(C)C)c1CC(=O)N=S(N)(=O)c1cnc(C(C)(C)O)s1)COC2` (single isomer, unassigned) [Example 292, (S) or (R)-N-(amino(2-(2-hydroxypropan-2-yl)thiazol-5-yl)(oxo)-λ^6-sulfaneylidene)-2-(6-ethyl-4-isopropyl-1,3-dihydroisobenzofuran-5-yl)acetamide], for which the half-inhibitory concentration (IC50) is more than 30000 nM.

For `CC(C)c1cc(C#N)c(F)c(C(C)C)c1CC(=O)N=S(N)(=O)c1cnc(C(C)(O)CO)s1` (single isomer, unassigned) [Example 335, (R, S) or (S, S)-N-(amino(2-(1,2-dihydroxypropan-2-yl)thiazol-5-yl)(oxo)-λ^6-sulfaneylidene)-2-(4-cyano-3-fluoro-2,6-diisopropylphenyl) acetamide], the IC50 was more than 30000 nM.

Regarding `CC(C)c1cc(C(F)F)nc(C(C)C)c1CC(=O)N=S(N)(=O)c1sc(CN(C)C)cc1F` (single isomer, unassigned) [Example 305, (S) or (R)-N-(amino(5-((dimethylamino)methyl)-3-fluorothiophen-2-yl) (oxo)-λ^6-sulfaneylidene)-2-(6-(difluoromethyl)-2,4-diisopropylpyridin-3-yl)acetamide], the IC50 was more than 30000 nM.

The same test, now with this note: Homo sapiens, THP-1, Table B1; 2% fetal bovine serum; class symbols; read-out: hTHP-1 IC50 (Average IC50 of compounds in hTHP-1 assay).
Turning to `CCc1cc2c(c(C(C)C)c1CC(=O)N=S(N)(=O)c1cnc(C(C)(C)O)s1)COC2` (stereo not drawn) [Example 260, N-(amino(2-(2-hydroxypropan-2-yl)thiazol-5-yl)(oxo)-λ^6-sulfaneylidene)-2-(6-ethyl-4-isopropyl-1,3-dihydroisobenzofuran-5-yl)acetamide], the IC50 is 5000 to 30000 nM.

With `CNCc1ccc(S(N)(=O)=NC(=O)Cc2c(C(C)C)cc(C(F)F)nc2C(C)C)cc1` (single isomer, unassigned) [Example 324, (R) or (S)-N-(amino (4-((methylamino)methyl)phenyl)(oxo)-λ^6-sulfaneylidene)-2-(6-(difluoromethyl)-2,4-diisopropylpyridin-3-yl)acetamide], the IC50 is 5000 to 30000 nM.

`CC(C)c1cc(C(F)F)nc(C(C)C)c1CC(=O)N=S(N)(=O)c1sc(CN(C)C)cc1F` (single isomer, unassigned) [Example 306, (R) or (S)-N-(amino(5-((dimethylamino)methyl)-3-fluorothiophen-2-yl)(oxo)-λ^6-sulfaneylidene)-2-(6-(difluoromethyl)-2,4-diisopropylpyridin-3-yl)acetamide]: the IC50 lay in the range of 200 to 1000 nM.

As for `CC(C)c1cc2c(c(C(C)C)c1CC(=O)N=S(N)(=O)c1cnn3c1OCCC3)COC2` (single isomer, unassigned) [Example 310, (R) or (S)-N-(amino (6,7-dihydro-5H-pyrazolo[5,1-b][1,3]oxazin-3-yl)(oxo)-λ^6-sulfaneylidene)-2-(4,6-diisopropyl-1,3-dihydroisobenzofuran-5-yl)acetamide], the IC50 lay in the range of 1000 to 5000 nM.

As to `CC(C)c1cc(C(F)F)cc(C(C)C)c1CC(=O)N=S(N)(=O)c1ccc(CN(C)C)nc1` (stereo not drawn) [Example 230, N-(amino(6-((dimethylamino)methyl)pyridin-3-yl)(oxo)-λ^6-sulfaneylidene)-2-(4-(difluoromethyl)-2,6-diisopropylphenyl)acetamide], the IC50 lay in the range of 1000 to 5000 nM.

For `CC(C)c1cc2c(c(C(C)C)c1CC(=O)N=S(N)(=O)c1ccn(C(F)F)n1)COC2` (stereo not drawn) [Example 243, N-(amino(1-(difluoromethyl)-1H-pyrazol-3-yl)(oxo)-λ^6-sulfaneylidene)-2-(4,6-diisopropyl-1,3-dihydroisobenzofuran-5-yl) acetamide], the IC50 was 5000 to 30000 nM.

On to `CC(C)c1cnc(F)c(C(C)C)c1CC(=O)N=S(N)(=O)c1cnc(C(C)(C)O)s1` (stereo not drawn) [Example 154, N-(amino(2-(2-hydroxypropan-2-yl)thiazol-5-yl)(oxo)-λ^6-sulfaneylidene)-2-(2-fluoro-3,5-diisopropylpyridin-4-yl)acetamide], for which the IC50 was 5000 to 30000 nM.

Take `CC(C)c1cc(C#N)cc(C(C)C)c1CC(=O)N=S(N)(=O)c1sc(C(C)(C)O)nc1CO` (stereo not drawn) [Example 22, N-(amino(4-(hydroxymethyl)-2-(2-hydroxypropan-2-yl)thiazol-5-yl)(oxo)-λ^6-sulfaneylidene)-2-(4-cyano-2,6-diisopropylphenyl)acetamide]: the IC50 lay in the range of 200 to 1000 nM.

For `CC(C)c1cc2c(c(C(C)C)c1CC(=O)N=S(N)(=O)c1cccc(C(C)(C)O)c1)COC2` (stereo not drawn) [Example 266, N-(amino (3-(2-hydroxypropan-2-yl)phenyl)(oxo)-λ^6-sulfaneylidene)-2-(4,6-diisopropyl-1,3-dihydroisobenzofuran-5-yl)acetamide], the IC50 lay in the range of 1000 to 5000 nM.

The same test, now with this note: Homo sapiens, THP-1, Table B2; 2% fetal bovine serum; class symbols; read-out: hTHP-1 IC50 (Average IC50 of compounds in hTHP-1 assay).
`CCn1cc(F)c(S(N)(=O)=NC(=O)Cc2c(C(C)C)cc3c(c2C(C)C)COC3)n1` (single isomer, unassigned) [Example 398, (R) or (S)-N-(amino(1-ethyl-4-fluoro-1H-pyrazol-3-yl)(oxo)-λ^6-sulfaneylidene)-2-(4,6-diisopropyl-1,3-dihydroisobenzofuran-5-yl)acetamide]: the IC50 fell in the range of 200 to 1000 nM.

Still in this test, the particulars now being: Table B1; 2% fetal bovine serum; class symbols; read-out: hTHP-1 IC50 (Average IC50 of compounds in hTHP-1 assay).
As for `Cc1nc(C(C)(C)O)sc1S(N)(=O)=NC(=O)Cc1c(C(C)C)cc(C#N)cc1C(C)C` (single isomer, unassigned) [Example 60, (S)- or (R)-2-(4-cyano-2,6-diisopropylphenyl)-N-(2-(2-hydroxypropan-2-yl)-4-methylthiazole-5-sulfonimidoyl)acetamide], the IC50 fell in the range of 40 to 200 nM.

In the case of `CC(C)c1cc(C(F)F)cc(C(C)C)c1CC(=O)N=S(N)(=O)c1ccc(CN(C)C)cc1` (single isomer, unassigned) [Example 325, (R) or (S)-N-(amino (4-((dimethylamino)methyl)phenyl)(oxo)-λ6-sulfaneylidene)-2-(4-(difluoromethyl)-2,6-diisopropylphenyl) acetamide], the IC50 was 200 to 1000 nM.

With `CC(C)c1c(F)c(C#N)cc(C2CC2)c1CC(=O)N=S(N)(=O)c1sc(C(C)(C)O)cc1F` (single isomer, unassigned) [Example 55, (R)- or (S)-2-(4-cyano-6-cyclopropyl-3-fluoro-2-isopropylphenyl)-N-(3-fluoro-5-(2-hydroxypropan-2-yl)thiophen-2-ylsulfonimidoyl)acetamide], the IC50 was in the range of 1000 to 5000 nM.

For `CC(C)c1c(F)c(C#N)cc(C2CC2)c1CC(=O)N=S(N)(=O)c1sc(C(C)(C)O)cc1F` (stereo not drawn) [Example 19, 2-(4-cyano-6-cyclopropyl-3-fluoro-2-isopropylphenyl)-N-(3-fluoro-5-(2-hydroxypropan-2-yl)thiophen-2-ylsulfonimidoyl)acetamide], the IC50 lay in the range of 8 to 40 nM.

For the compound `CC(C)c1ncc(F)c(C(C)C)c1CC(=O)N=S(N)(=O)c1cc(C(C)(C)O)cs1` (single isomer, unassigned) [Example 208, N-(amino(4-(2-hydroxypropan-2-yl)thiophen-2-yl)(oxo)-λ^6-sulfaneylidene)-2-(5-fluoro-2,4-diisopropylpyridin-3-yl)acetamide], the IC50 lay in the range of 40 to 200 nM.

As to `CC(C)c1cc(-c2ccc(Cl)c(Cl)c2)cc(C(C)C)c1CC(=O)N=S(N)(=O)c1ncc(C(C)(C)O)s1` (single isomer, unassigned) [Example 170, (R) or (S)-N-(amino(5-(2-hydroxypropan-2-yl)thiazol-2-yl)(oxo)-λ^6-sulfaneylidene)-2-(3′,4′-dichloro-3,5-diisopropyl-[1,1′-biphenyl]-4-yl)acetamide], the IC50 fell in the range of 200 to 1000 nM.

In the case of `CC(C)c1ccc(C#N)c(C(C)C)c1CC(=O)N=S(N)(=O)c1nc(C(C)(C)O)cs1` (single isomer, unassigned) [Example 179, (R) or (S)-N-(amino(4-(2-hydroxypropan-2-yl)thiazol-2-yl)(oxo)-λ^6-sulfaneylidene)-2-(3-cyano-2,6-diisopropylphenyl) acetamide], the IC50 was 200 to 1000 nM.

For the compound `CC(C)c1cc(C#N)cc(C(C)C)c1CC(=O)N=S(N)(=O)c1ncc(C(C)(C)O)s1` (single isomer, unassigned) [Example 82, (R)- or (S)-2-(4-cyano-2,6-diisopropylphenyl)-N-(5-(2-hydroxypropan-2-yl)thiazol-2-ylsulfonimidoyl)acetamide], the IC50 was in the range of 5000 to 30000 nM.

For `CC(C)c1cc(C#N)c(F)c(C(C)C)c1CC(=O)N=S(N)(=O)c1cc(C(C)(C)O)n(-c2ccccc2)n1` (single isomer, unassigned) [Example 276, (S) or (R)-N-(amino (5-(2-hydroxypropan-2-yl)-1-phenyl-1H-pyrazol-3-yl)(oxo)-λ^6-sulfaneylidene)-2-(4-cyano-3-fluoro-2,6-diisopropylphenyl) acetamide], the IC50 lay in the range of 5000 to 30000 nM.
